In test [1] the test system is A2780 cells. Put plainly: Deoxy-glucose uptake assay in A2780 cells (14C 2-deoxy-D-glucose transport). The class given is cell-based. Conditions: Homo sapiens, 20 min; inhibition of 14C 2-deoxy-D-glucose transport into A2780 cells; 20 min compound incubation; read-out: IC50. A digest of the protocol: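 Radiolabelled 2-deoxy-D-glucose transport over 20 min was scintillation-counted in A2780 cells, grown 48 h, after 20 min compound exposure in KRB. Untreated cells gave the 100% reference, with Cytochalasin B defining background. IC50 values were regressed from triplicate means across 7 or 14 concentrations.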

In test [2] the target is T1, hGLUT1 protein (Homo sapiens, UniProt P11166).
T1 construct: fused on or other part: 11-amino-acid HiBiT peptide tag (small part of nanoluciferase) inserted into the first extracellular loop of GLUT1
T1 sequence (P11166 1-492): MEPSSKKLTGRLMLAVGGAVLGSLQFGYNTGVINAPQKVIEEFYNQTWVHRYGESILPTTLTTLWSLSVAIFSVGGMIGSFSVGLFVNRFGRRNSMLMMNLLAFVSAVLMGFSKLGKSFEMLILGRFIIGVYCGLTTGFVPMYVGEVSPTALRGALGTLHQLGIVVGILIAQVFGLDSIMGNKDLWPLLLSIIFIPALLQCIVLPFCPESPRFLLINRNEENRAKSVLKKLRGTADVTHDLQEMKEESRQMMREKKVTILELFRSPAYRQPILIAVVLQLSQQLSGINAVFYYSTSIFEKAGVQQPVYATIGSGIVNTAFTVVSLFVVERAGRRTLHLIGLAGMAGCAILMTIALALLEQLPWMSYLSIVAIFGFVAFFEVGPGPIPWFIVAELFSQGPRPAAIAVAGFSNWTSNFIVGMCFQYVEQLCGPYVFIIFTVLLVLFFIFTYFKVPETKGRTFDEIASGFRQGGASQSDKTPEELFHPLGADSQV
Briefly: NanoBRET-based GLUT1-binding assay in HEK cells. Conditions: displacement of Bayer+NB618 (75 nM) from HiBit-tagged GLUT1 HEK cells; mean of measurements done twice in duplo; read-out: IC50. Here is the method: 3. NanoBRET-Based GLUT1-Binding Assays in HEK Cells
To measure binding of compounds to the hGLUT1 protein, the newly-developed NanoBRET platform from Promega is used. In this technology binding is measured via Foerster Resonance Energy Transfer. Foerster Resonance Energy Transfer is based on a direct, radiation-free energy transfer from donor to acceptor and can only take place when donor and acceptor are within nm distance. As donor energy the bioluminescence light of nanoluciferase is used, therefore this application is referred to as BRET (Bioluminescence Resonance Energy Transfer). Nanoluciferase is a protein that emits light when the appropriate substrate is available.
Nanoluciferase is attached to GLUT1 via protein complementation using the HiBit protein tagging system (Promega). […] The HiBit peptide tag is used as a landing pad for the so called Large Bit protein that is commercially available from Promega and added to the medium. Large Bit has a high affinity for HiBit tag resulting in protein complementation to a fully-functional nanoluciferase, which is used as energy donor in the NanoBRET assay system.
To obtain a HEK cell line expressing HiBit-tagged GLUT1, cells were transfected with the appropriate construct placed behind the tetracycline-inducible promoter (Flipin T-Rex system from Thermo Fisher, K650001) and a cell line was generated.
As NanoBRET acceptor a GLUT1 inhibitor described by Siebeneicher et al. (Siebeneicher H., Bauser M., Buchmann B., et al. Identification of novel GLUT inhibitors. Bioorganic & Medicinal Chemistry Letters 2016; 26(7):1732-7; compound 53) was reduced to the aminobenzyl derivative and coupled to the fluorophore NanoBRET618 (Promega) and is referred to as “Bayer+NB618”.
For the assay 50 μl with 7500 cells (HiBit-tagged GLUT1 HEK cells) are plated into 384 poly-D-lysine-coated black μClear plates (Greiner) in DMEM (Gibco 61966) medium supplemented with 10% tetracycline-free FCS (PAN P30-3602) and 300 ng/ml doxycycline (Sigma 9891) to induce the induction of the HiBit-tagged GLUT1 protein.
Incubation of Compound and Acceptor Molecule
After getting adherent by overnight incubation at 37° C. and 10% CO2, the medium is replaced by 10 μl imaging medium (1% BSA (Sigma A9576), 5 mM Hepes (Gibco 15630), 0.35 mM Na-bicarbonate (Gibco 11360-039), 1 mM Na-Pyruvate (Gibco 11360) in PBS buffer (Gibco14040)). 5 μl Bayer+NB618 (in imaging medium, final concentration 75 nM) is added and the plates are incubated for 15 minutes statically at room temperature.
A serial dilution of the test compounds is prepared in imaging medium and added in 10 μl to the respective wells. As a positive control for displacement values from wells incubated with 200 mM D-Glucose (Sigma G8769) are used. Plates are incubated for 30 minutes at room temperature without shaking.
Generating Luminescence and Measuring Fluorescence
This detection solution is made in the buffer provided. After addition of the detection reagent, the samples are incubated for 30 minutes without shaking and subsequently the luminescence and fluorescence emissions are measured simultaneously on the PHERAstar FSX (BMG Labtech) using the appropriate dual filter setup. This filter setup is made up of a 450-80 nm band pass filter to measure the donor signal peaking at 460 nm and a long pass filter starting at 610 nm to measure the fluorescence emission of NanoBRET 618, which peaks at 621 nm and continues beyond 700 nm.
From the raw luminescence and fluorescence values, the NanoBRET ratios are calculated, being the ratio of the fluorescence signal divided by the luminescence signal. Mean values are obtained from at least duplicates.
For percentage inhibition results, the mean value of the not-compound-treated cells is set as 0%. The mean BRET value of the cells treated with 200 mM glucose is used for maximal inhibition. All other mean values were calculated to this relation. […]
Background: BRET reads energy transfer from a luciferase to a nearby fluorophore.

The subject of test [3] is A2780 Human Carcinoma Cells. Put plainly: Glucose displacement assay (ATP measurement, CellTiter-Glo). The test is classed as cell-based. The conditions noted are these: ATP measurement in A2780 cells, 0.5 μM rotenone. A digest of the protocol: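 Cells were glucose-starved for 2 h in 1% FCS medium, then treated with compound in KRB buffer for 20 min at 37 °C with rotenone at 0.5 μM final. Glucose (typically 0.1–10 mM) was added for 15 min at 37 °C. ATP was measured by CellTiter-Glo luminescence.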
A general note: Cellular ATP, detected with luciferase, serves as a proxy for viable cell number.

[4] abbreviates: 1 mM glucose, read-out: IC50 [μM] at 1 mM glucose.
Where [5] appears, read: 10 mM glucose, read-out: IC50 [μM] at 10 mM glucose.

Molecules are shown by their SMILES. Where two headings read alike, the source gives them in different places. Bounds are passed on as bounds.

Usually IC50 stands for the point on the concentration scale where inhibition reaches its midpoint. On to `C#CCCCn1c(COc2c(Cl)cc(C(=O)O[C@H]3[C@@H](OC)O[C@H](CO)[C@@H](O)[C@@H]3O)c(C)c2Cl)nc2ccccc21` [Example 212], for which the IC50 in test [1] is 100 nM; in test [2] it was 0.24 µM; in test [3] (setting [4]) it was < 0.12 µM; in test [3] (setting [5]) it was 0.288 µM.
For `COC(=O)[C@H](CCC(=O)NCc1cccc(COc2c(Cl)cc(C(=O)O[C@H]3[C@@H](OC)O[C@H](CO)[C@@H](O)[C@@H]3O)c(C)c2Cl)c1)NC(=O)OC(C)(C)C` [Example 306], in that order: 3000 nM, 0.19 µM, 1.86 µM and 7.95 µM.
On the same counts, the results for `C#CCCCCCn1c(COc2c(Cl)cc(C(=O)O[C@H]3[C@@H](OC)O[C@H](CO)[C@@H](O)[C@@H]3O)c(C)c2Cl)nc2ccccc21` [Example 320] are 20 nM, 0.22 µM, 0.51 µM and 1.13 µM.
As to `C#CCCCn1c(COc2cc(OC)c(C(=O)N[C@H]3[C@@H](OC)O[C@H](CO)[C@@H](O)[C@@H]3O)cc2Cl)nc2ccccc21` [Example 328], the IC50 in test [1] was 1600 nM; in test [2] it was 13.6 µM; in test [3] (setting [4]), 0.56 µM; in test [3] (setting [5]) it was > 33 µM.
On the same counts, the results for `COc1cc(OCc2ccc3c(c2)nnn3C)c(Cl)cc1C(=O)O[C@H]1[C@@H](OC)O[C@H](CO)[C@@H](O)[C@@H]1O` [Example 340] are 400 nM, 9.49 µM, 0.35 µM and 4.55 µM.
On the same counts, the results for `COc1cc(OCc2cccc(NC(=O)OC(C)(C)C)c2)c(Cl)cc1C(=O)N[C@H]1[C@H](OC)O[C@H](CO)[C@@H](O)[C@@H]1O` [Example 415] are 700 nM, 8.3 µM, 3.07 µM and 9.21 µM.

The values above are taken from patent publication US20210170033A1, “NOVEL CONJUGATES OF A PHARMACEUTICAL AGENT AND A MOIETY CAPABLE OF BINDING TO A GLUCOSE SENSING PROTEIN” (SANOFI, priority 2017, published 2021).
